Legend:
CDK2 [1] = biological target: T1, CDK2 (Homo sapiens, UniProt P24941); assay: High-throughput HTRF measurement of cellular endogenous CDK2 level (degradation, DC50/Dmax) in OVCAR3 cells, 6 h; type: cell-based; conditions: 6 h compound treatment, HTRF total CDK2, read-out: DC50_OVCAR3_6h
T1 construct: High-Throughput Measurement of Cellular Endogenous CDK2; endogenous in cells; host or cells: OVCAR3
Description: High-Throughput Measurement of Cellular Endogenous CDK2
Effects of compounds on cellular CDK2 level were monitored by a high-throughput HTRF assay.
To determine half maximal degradation concentration (DC50) and maximum degradation level (Dmax) values of compounds, cellular CDK2 level was measured in 96-well format using HTRF total CDK2 cellular kit (Cat #64CDK2TPEG) from Cisbio.
On Day 1, OVCAR3 cells were seeded into 96-well tissue-culture treated plates at 20,000 cells/well in 200 μL and incubated overnight at 37° C. in CO2 atmosphere. On Day 2 cells were treated with compounds at concentration ranging from 0.03 to 1,000 nM using HP D300 digital dispenser. 6 hours after compound treatment, cell culture media was removed by flicking the plate and tapping the plate against clean paper towel. Immediately 30 μL 1× lysis buffer was supplemented from the kit and added to each well and the plate is incubated at room temperature on shaker for 30 min. After homogenization by pipetting up and down, 8 μL cell lysate from 96-well cell culture plate was transferred to 384-well small volume white detection plate. 2 μL premixed detection solution was added and the plate is covered with sealer. To prepare the detection solution, d2 conjugated-CDK2 antibody and Eu-cryptate conjugated CDK2 antibody were diluted into detection buffer following manufacturer's instruction. Detection plates were incubated overnight at room temperature and read on ClarioStar (BMG Labtech) in TR-FRET mode (665 nM and 620 nM). The TR-FRET ratio (665 nM/620 nM) was plotted against the compound concentration and normalized to DMSO controls (0% degradation) and lysis buffer controls (100% degradation). Half maximal degradation concentration (DC 50) […] were calculated with a four-parameter logistic fit using GraphPad Prism (version 8; La Jolla, CA).
In the table below, AA indicates a DC50 of greater than or equal to 0.5 nM but less than 1 nM; A indicates a DC50 of greater than or equal to 1 nM but less than or equal to 10 nM; B indicates a DC50 of greater than 10 nM but less than or equal to 100 nM; C indicates a DC50 of greater than 100 nM but less than or equal to 1 μM; and D indicates a DC50 of greater than 1 μM […] but less than or equal to 5 μM. NT means not tested.

CDK2 [2] = biological target: T1, CDK2; assay: Inhibition of CDK2: phospho-Rb (S807/811) HTRF measurement in OVCAR3 cells, 24 h; type: cell-based; conditions: 24 h compound treatment, read-out: pRB_OVCAR3_24h
How it was run: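 IC50 came from a four-parameter fit of DMSO-normalized TR-FRET ratios (665/620 nm) reporting phospho-Rb S807/811. Lysates were taken from OVCAR3 cultures treated 24 h with compound (0.3 to 10,000 nM) and incubated 4 h at room temperature with the antibody pair.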

| Structure (SMILES) | DC50 (CDK2 [1]) [µM] | IC50 (CDK2 [2]) [µM] |
| --- | --- | --- |
| Cn1nc(N2CCC(=O)NC2=O)c2ccc(C3CCN(CC4CCN(c5cccc(S(=O)(=O)N6CC[C@H](Nc7ncc(Cl)cn7)[C@H](F)C6)c5)CC4)CC3)cc21 (racemic) [Example 202, Rac-1-(6-(1-((1-(3-(((3R,4S)-4-((5-chloropyrimidin-2-yl)amino)-3-fluoropiperidin-1-yl)sulfonyl)phenyl)piperidin-4-yl)methyl)piperidin-4-yl)-1-methyl-1H-indazol-3-yl)dihydropyrimidine-2,4(1H,3H)-dione] | 0.001 to 0.01 | 0.001 to 0.1 |
| Cn1nc(N2CCC(=O)NC2=O)c2ccc(C3CCN(CC4CCN(c5cccc(S(=O)(=O)N6CC[C@H](Nc7ncc(C(F)(F)F)cn7)[C@H](F)C6)c5)CC4)CC3)cc21 (racemic) [Example 223, Rac-1-(6-(1-((1-(3-(((3R,4S)-3-fluoro-4-((5-(trifluoromethyl)pyrimidin-2-yl)amino)piperidin-1-yl)sulfonyl)phenyl)piperidin-4-yl)methyl)piperidin-4-yl)-1-methyl-1H-indazol-3-yl)dihydropyrimidine-2,4(1H,3H)-dione] | 0.001 to 0.01 | 0.001 to 0.1 |
| Cn1nc(N2CCC(=O)NC2=O)c2ccc(C3CCN(Cc4cccc(S(=O)(=O)N5CCC(Nc6ncc(C(F)(F)F)cn6)CC5)c4)CC3)cc21 [Example 1] | 0.001 to 0.01 | 0.001 to 0.1 |
| Cn1nc(N2CCC(=O)NC2=O)c2ccc(C3CCN(Cc4cccc(S(=O)(=O)N5CCC(Nc6ncc(C(F)(F)F)cn6)CC5)c4)CC3)c(F)c21 [Example 2, 1-(7-fluoro-1-methyl-6-(1-(3-((4-((5-(trifluoromethyl)pyrimidin-2-yl)amino)piperidin-1-yl)sulfonyl)benzyl)-piperidin-4-yl)-1H-indazol-3-yl)dihydropyrimidine-2,4(1H,3H)-dione] | 0.01 to 0.1 | 0.001 to 0.1 |
| Cn1nc(N2CCC(=O)NC2=O)c2ccc(C3CCN(CCc4cccc(S(=O)(=O)N5CCC(Nc6ncc(C(F)(F)F)cn6)CC5)c4)CC3)cc21 [Example 6, 1-(1-methyl-6-(1-(3-((4-((5-(trifluoromethyl)pyrimidin-2-yl)amino)-piperidin-1-yl)sulfonyl)phenethyl)piperidin-4-yl)-1H-indazol-3-yl)dihydropyrimidine-2,4(1H,3H)-dione] | 0.1 to 1 | 0.001 to 0.1 |
| Cc1ncsc1-c1ccc([C@H](C)NC(=O)[C@@H]2C[C@@H](O)CN2C(=O)[C@H](NC(=O)C2CCN(Cc3cccc(S(=O)(=O)N4CCC(Nc5ncc(C(F)(F)F)cn5)CC4)c3)CC2)C(C)(C)C)cc1 [Example 7, N-((R)-1-((2S,4R)-4-hydroxy-2-(((S)-1-(4-(4-methylthiazol-5-yl)phenyl)ethyl)-carbamoyl)pyrrolidin-1-yl)-3,3-dimethyl-1-oxobutan-2-yl)-1-(3-((4-((5-(trifluoro-methyl)pyrimidin-2-yl)amino)piperidin-1-yl)sulfonyl)benzyl) piperidine-4-carboxamide] | 0.1 to 1 | 0.1 to 0.5 |
| Cn1cc(C2CCC(=O)NC2=O)c2ccc(C3CCN(CC4CCN(c5cccc(S(=O)(=O)N6CCC(Nc7ncc(Cl)cn7)CC6)c5)CC4)CC3)cc21 (centres unmarked) [Example 254, 3-(6-(1-((1-(3-((4-((5-chloropyrimidin-2-yl)amino)piperidin-1-yl)sulfonyl)phenyl)piperidin-4-yl)methyl)piperidin-4-yl)-1-methyl-1H-indol-3-yl)piperidine-2,6-dione] | – | 0.1 to 0.5 |
| Cn1nc(N2CCC(=O)NC2=O)c2ccc(C3CCN(C[C@H]4CCCN4c4cc(S(=O)(=O)N5CCC(Nc6ncc(OC(F)F)cn6)CC5)ccc4C#N)CC3)cc21 [Example 255, (R)-4-((4-((5-(difluoromethoxy)pyrimidin-2-yl)amino)piperidin-1-yl)sulfonyl)-2-(2-((4-(3-(2,4-dioxotetrahydropyrimidin-1(2H)-yl)-1-methyl-1H-indazol-6-yl)piperidin-1-yl)methyl)pyrrolidin-1-yl)benzonitrile] | – | 0.1 to 0.5 |
| Cn1nc(N2CCC(=O)NC2=O)c2ccc(C3CCN(C[C@@H]4CCCN4c4cc(S(=O)(=O)N5CCC(Nc6ncc(OC(F)F)cn6)CC5)ccc4C#N)CC3)cc21 [Example 256, (S)-4-((4-((5-(difluoromethoxy)pyrimidin-2-yl)amino)piperidin-1-yl)sulfonyl)-2-(2-((4-(3-(2,4-dioxotetrahydropyrimidin-1(2H)-yl)-1-methyl-1H-indazol-6-yl)piperidin-1-yl)methyl)pyrrolidin-1-yl)benzonitrile] | – | 0.1 to 0.5 |
| Cn1nc(N2CCC(=O)NC2=O)c2ccc(C3CCN(C[C@@H]4CCCN(c5cccc(S(=O)(=O)N6CCC(Nc7ncc(OC(F)F)cn7)CC6)c5)C4)CC3)cc21 [Example 257, (S)-1-(6-(1-((1-(3-((4-((5-(difluoromethoxy)pyrimidin-2-yl)amino)piperidin-1-yl)sulfonyl)phenyl)piperidin-3-yl)methyl)piperidin-4-yl)-1-methyl-1H-indazol-3-yl)dihydropyrimidine-2,4(1H,3H)-dione] | – | 0.1 to 0.5 |
| Cn1nc(N2CCC(=O)NC2=O)c2ccc(C3CCN(C[C@H]4CCCN(c5cccc(S(=O)(=O)N6CCC(Nc7ncc(OC(F)F)cn7)CC6)c5)C4)CC3)cc21 [Example 258, (R)-1-(6-(1-((1-(3-((4-((5-(difluoromethoxy)pyrimidin-2-yl)amino)piperidin-1-yl)sulfonyl)phenyl)piperidin-3-yl)methyl)piperidin-4-yl)-1-methyl-1H-indazol-3-yl)dihydropyrimidine-2,4(1H,3H)-dione] | – | 0.1 to 0.5 |
| Cn1nc(N2CCC(=O)NC2=O)c2ccc(C3CCN(C[C@@H]4CCCN4c4cccc(S(=O)(=O)N5CCC(Nc6ncc(OC(F)F)cn6)CC5)c4)CC3)cc21 [Example 259, (S)-1-(6-(1-((1-(3-((4-((5-(difluoromethoxy)pyrimidin-2-yl)amino)piperidin-1-yl)sulfonyl)phenyl)pyrrolidin-2-yl)methyl)piperidin-4-yl)-1-methyl-1H-indazol-3-yl)dihydropyrimidine-2,4(1H,3H)-dione] | – | 0.5 to 2.5 |
| Cn1nc(N2CCC(=O)NC2=O)c2ccc(C3CCN(C[C@H]4CCCCN4c4cccc(S(=O)(=O)N5CCC(Nc6ncc(OC(F)F)cn6)CC5)c4)CC3)cc21 [Example 260, (R)-1-(6-(1-((1-(3-((4-((5-(difluoromethoxy)pyrimidin-2-yl)amino)piperidin-1-yl)sulfonyl)phenyl)piperidin-2-yl)methyl)piperidin-4-yl)-1-methyl-1H-indazol-3-yl)dihydropyrimidine-2,4(1H,3H)-dione] | – | 0.1 to 0.5 |
| Cn1nc(N2CCC(=O)NC2=O)c2ccc(C3CCN(C[C@@H]4CCCCN4c4cccc(S(=O)(=O)N5CCC(Nc6ncc(OC(F)F)cn6)CC5)c4)CC3)cc21 [Example 261, (S)-1-(6-(1-((1-(3-((4-((5-(difluoromethoxy)pyrimidin-2-yl)amino)piperidin-1-yl)sulfonyl)phenyl)piperidin-2-yl)methyl)piperidin-4-yl)-1-methyl-1H-indazol-3-yl)dihydropyrimidine-2,4(1H,3H)-dione] | – | 0.1 to 0.5 |

Reference: patent publication US20260167623A1 (NIKANG THERAPEUTICS, INC., priority 2022, published 2026)
